Measurements published in ChEMBL document CHEMBL1131817, “Structure-based design of irreversible, tripeptidyl human rhinovirus 3C protease inhibitors containing N-methyl amino acids” (Bioorg Med Chem Lett, 1999).

What was measured:
[1] = molecular target: T1, Human rhinovirus A protease (Human rhinovirus sp.) (UniProt Q4U254); assay: Inhibitory activity against Human RhinoVirus serotype-14 3C Protease; format: functional; settings: rhinovirus B14
T1 sequence (whole entry): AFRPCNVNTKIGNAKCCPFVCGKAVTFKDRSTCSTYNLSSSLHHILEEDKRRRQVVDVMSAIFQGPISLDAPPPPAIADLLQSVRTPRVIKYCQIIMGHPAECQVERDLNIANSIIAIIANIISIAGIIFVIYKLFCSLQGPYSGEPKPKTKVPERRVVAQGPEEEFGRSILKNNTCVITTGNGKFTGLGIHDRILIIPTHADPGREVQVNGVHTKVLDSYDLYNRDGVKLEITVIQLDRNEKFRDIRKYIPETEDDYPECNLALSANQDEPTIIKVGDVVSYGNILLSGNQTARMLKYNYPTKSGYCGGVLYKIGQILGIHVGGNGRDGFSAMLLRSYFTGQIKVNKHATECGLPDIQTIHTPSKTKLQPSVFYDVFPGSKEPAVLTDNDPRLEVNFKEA

Human rhinovirus sp. [2] = assay: In vitro antiviral activity against HRV serotype-14; format: functional, organism-based
Human rhinovirus sp. [3] = assay: Inhibitory activity against Human RhinoVirus serotype-14 3C Protease; NI means No inhibition to 50 uM; format: functional, organism-based

Compound | k obs / 1 [1] [M⁻¹ s⁻¹] | EC50 (Human rhinovirus sp. [2]) [nM] | k obs / 1 (Human rhinovirus sp. [3])
CCOC(=O)/C=C/[C@H](CCC(N)=O)NC(=O)[C@H](Cc1ccccc1)NC(=O)[C@H](CC(C)C)N(C)C(=O)OCc1ccccc1 | 100 |  | 
CCOC(=O)/C=C/[C@H](CCC(N)=O)NC(=O)[C@H](Cc1ccccc1)N(C)C(=O)[C@H](CC(C)C)NC(=O)OCc1ccccc1 | 5300 | 1000 | 
CCOC(=O)/C=C/[C@H](CCC(N)=O)NC(=O)[C@H](Cc1ccc(F)cc1)N(C)C(=O)[C@H](Cc1c[nH]cn1)NC(=O)c1cc(C)on1 | 66000 | 1800 | 
CCOC(=O)/C=C/[C@H](C[C@@H]1CCCNC1=O)NC(=O)[C@H](Cc1ccc(F)cc1)N(C)C(=O)[C@H](CC(C)C)NC(=O)c1cc(C)on1 | 610000 | 30 | 
CCOC(=O)/C=C/[C@H](CCC(N)=O)NC(=O)[C@H](Cc1ccccc1)N(C)C(=O)[C@@H](NC(=O)SC1CCCC1)C(C)C | 22500 | 190 | 
CCOC(=O)/C=C/[C@H](CCC(N)=O)N(C)C(=O)[C@H](Cc1ccccc1)NC(=O)[C@H](CC(C)C)NC(=O)OCc1ccccc1 |  |  | No inhibition
CCOC(=O)/C=C/[C@H](CCC(N)=O)NC(=O)[C@H](Cc1ccccc1)N(C)C(=O)[C@H](CC(C)C)NC(=O)c1cc(C)on1 | 108000 | 140 | 
CCOC(=O)/C=C/[C@H](CCC(N)=O)NC(=O)[C@H](Cc1ccccc1)N(C)C(=O)[C@H](CSc1ccccc1)NC(=O)SC1CCCC1 | 36800 | 540 | 
CCOC(=O)/C=C/[C@H](CCC(N)=O)NC(=O)[C@H](Cc1ccccc1)NC(=O)[C@H](CC(C)C)NC(=O)OCc1ccccc1 | 25000 | 540 | 
CCOC(=O)/C=C/[C@H](CCC(N)=O)NC(=O)[C@H](Cc1ccc(F)cc1)N(C)C(=O)[C@H](Cc1ccc2ccccc2c1)NC(=O)c1cc(C)on1 | 144000 | 160 | 
CCOC(=O)/C=C/[C@H](CCC(N)=O)NC(=O)[C@H](Cc1ccccc1)N(C)C(=O)[C@H](CC(C)C)NC(=O)SC1CCCC1 | 17300 | 320 | 
CCOC(=O)/C=C/[C@H](CCC(N)=O)NC(=O)[C@H](Cc1ccc(F)cc1)N(C)C(=O)[C@H](CC(C)C)NC(=O)c1cc(C)on1 | 59300 | 400 | 
CCOC(=O)/C=C/[C@H](CCC(N)=O)NC(=O)[C@H](Cc1ccc(F)cc1)N(C)C(=O)[C@H](Cc1cccc2ccccc12)NC(=O)c1cc(C)on1 | 95800 | 200 | 
